Where two headings read alike, the source gives them in different places.

In the test the test system is HIV-1. As to the kind of experiment: HIV-1 infection assay (antiviral potency, MT4-GFP reporter cells). The test is classed as cell-based. The procedure: HIV-1 replication was monitored using MT4-gag-GFP clone D3 (hereafter designate MT4-GFP), which are MT-4 cells modified to harbor a GFP reporter gene, the expression of which is dependent on the HIV-1 expressed proteins tat and rev. Productive infection of an MT4-GFP cell with HIV-1 results in GFP expression approximately 24 h post-infection.
MT4-GFP cells were maintained at 37° C./5% CO2/90% relative humidity in RPMI 1640 supplemented with 10% fetal bovine serum, 100 U/ml penicillin/streptomycin, and 400 μg/ml G418 to maintain the reporter gene. For infections, MT4-GFP cells were placed in the same medium lacking G418 and infected overnight with H9IIIB or NL4-3 virus at an approximate multiplicity of infection of 0.01 in the same incubation conditions. Cells were then washed and resuspended in either RPMI 1640 containing no serum at 1.6×10^5 cells/mL (serum free conditions), 10% normal human serum at 1.6×10^5 cells/mL (10% NHS conditions) or in 100% normal human serum at 2×10^5 cells/mL (100% NHS conditions). Compound plates were prepared by dispensing compounds taken up in DMSO into wells of 384 well poly D lysine-coated plates (0.2 μl/well) using an ECHO acoustic dispenser. Each compound was tested in a 10 point serial 3-fold dilution (typical final concentrations: 4.2 μM-0.21 nM). Controls included no inhibitor (DMSO only) and a combination of three antiviral agents (efavirenz, indinavir, and the integrase strand transfer inhibitor L-002254051 at final concentrations of 4 μM each). Cells were added (50 μL/well) to compound plates and the infected cells were maintained at 37° C./5% CO2/90% relative humidity.
Infected cells were quantified at two time points, ˜48 h and ˜72 h post-infection, by counting the number of green cells in each well using an Acumen eX3 scanner. The increase in the number of green cells over ˜24 h period gives the reproductive ratio, R0, which is typically 5-15 and has been shown experimentally to be in logarithmic phase (data not shown). Inhibition of R0 is calculated for each well, and IC50 value was determined using non-linear 4-parameter curve fitting.

The mark [1] stands for this setting: Human immunodeficiency virus 1, NL43, MT4-GFP cells infected with H9IIIB or NL4-3 virus, 100% normal human serum, inhibition of reproductive ratio R0, read-out: VIKING IP (nM) with 100% NHS.
Setting [2] is: Human immunodeficiency virus 1, NL43, MT4-GFP cells infected with H9IIIB or NL4-3 virus, serum free conditions (0% NHS), inhibition of reproductive ratio R0, read-out: VIKING IP (nM) with 0% NHS.
[3] abbreviates: Human immunodeficiency virus 1, NL43, read-out: VIKING IP (nM) with 0% NHS.

On to `CC(C)OC(=O)OCOP(=O)(CCCN1C(=O)c2c(O)c(=O)c(C(=O)NCc3ccc(F)cc3F)cn2N(CCP(=O)(OCOC(=O)OC(C)C)OCOC(=O)OC(C)C)C12CCOC2)OCOC(=O)OC(C)C` (racemic) [Compound 49], for which the IC50 worked out at 8.8 nM under setting [1] and 0.3 nM under setting [2].

With `CCCOP(=O)(CCN1n2cc(C(=O)NCc3ccc(F)cc3F)c(=O)c(O)c2C(=O)N(C)[C@]12CCOC2)OCC` (single isomer, unassigned) [Compound 6], the IC50 runs as follows: under setting [1], 45.9 nM; under setting [2], 2 nM.

As for `CN1C(=O)c2c(O)c(=O)c(C(=O)NCc3ccc(F)cc3F)cn2N(CCP(=O)(O)O)[C@]12CCOC2` (single isomer, unassigned) [Compound 9], the IC50 reads like this: under setting [1], 961 nM; under setting [2], 23.3 nM.

As to `CN1C(=O)c2c(O)c(=O)c(C(=O)NCc3ccc(F)cc3F)cn2N(CCP(=O)(O)O)[C@@]12CCOC2` (single isomer, unassigned) [Compound 10], the IC50 was determined as 449 nM under setting [1] and 14.4 nM under setting [2].

Regarding `CCOP(=O)(CCN1C(=O)c2c(O)c(=O)c(C(=O)NCc3ccc(F)cc3F)cn2N(C)C12CCOC2)OCC` (single isomer, unassigned) [Compound 45], the IC50 is 118 nM under setting [1] and 2.9 nM under setting [2].

With `CN1n2cc(C(=O)NCc3ccc(F)cc3F)c(=O)c(O)c2C(=O)N(CCP(=O)(O)O)C12CCOC2` (single isomer, unassigned) [Compound 46], the IC50 stood at 775 nM under setting [1] and 92.1 nM under setting [2].

Consider `CC(C)OC(=O)OCOP(=O)(CCN1C(=O)c2c(O)c(=O)c(C(=O)NCc3ccc(F)cc3F)cn2N(C)C12CCOC2)OCOC(=O)OC(C)C` (single isomer, unassigned) [Compound 47], for which the IC50 runs as follows: under setting [1], 106 nM; under setting [2], 2.9 nM.

In the case of `CC(C)OC(=O)[C@H](C)NP(=O)(CCN1C(=O)c2c(O)c(=O)c(C(=O)NCc3ccc(F)cc3F)cn2N(C)C12CCOC2)Oc1ccccc1` (single isomer, unassigned) [Compound 48], the IC50 under setting [3] was determined as 23.8 nM.

Regarding `CC(C)OC(=O)OCOP(=O)(CCN1n2cc(C(=O)NCc3ccc(F)cc3F)c(=O)c(O)c2C(=O)N(C)[C@@]12CCOC2)OCOC(=O)OC(C)C` [Compound 11], the IC50 stood at 1.5 nM under setting [1] and 0.05 nM under setting [2].

Regarding `CC(C)OC(=O)OCOP(=O)(O)CCN1n2cc(C(=O)NCc3ccc(F)cc3F)c(=O)c(O)c2C(=O)N(C)[C@@]12CCOC2` [Compound 12], the IC50 under setting [1] came to 156 nM and the IC50 under setting [2] was 0.8 nM.

Turning to `CC(C)OC(=O)OCOP(=O)(CCN1n2cc(C(=O)NCc3ccc(F)cc3F)c(=O)c(O)c2C(=O)N(C)[C@]12CCOC2)OCOC(=O)OC(C)C` [Compound 13], the IC50 under setting [1] is 1.8 nM and the IC50 under setting [2] worked out at 0.04 nM.

For `CC(C)OC(=O)OCOP(=O)(O)CCN1n2cc(C(=O)NCc3ccc(F)cc3F)c(=O)c(O)c2C(=O)N(C)[C@]12CCOC2` [Compound 14], the IC50 by setting is: under setting [1], 89 nM; under setting [2], 1.6 nM.

With `CC(C)OC(=O)[C@H](C)NP(=O)(CCN1n2cc(C(=O)NCc3ccc(F)cc3F)c(=O)c(O)c2C(=O)N(C)[C@@]12CCOC2)Oc1ccccc1` (some centres unmarked) [Compound 15], under setting [3], the IC50 was determined as 3.9 nM.

For the compound `CC(C)OC(=O)[C@H](C)NP(=O)(CCN1n2cc(C(=O)NCc3ccc(F)cc3F)c(=O)c(O)c2C(=O)N(C)[C@]12CCOC2)Oc1ccccc1` (some centres unmarked) [Compound 16], the IC50 under setting [3] amounted to 3.7 nM.

Turning to `CCOP(=O)(CCN1C(=O)c2c(O)c(=O)c(C(=O)NCc3ccc(F)cc3F)cn2N(C)C12CCOC2)OCC` (centres unmarked) [Compound 40], the IC50 under setting [1] came to 92.6 nM and the IC50 under setting [2] came out at 3.6 nM.

Turning to `CN1n2cc(C(=O)NCc3ccc(F)cc3F)c(=O)c(O)c2C(=O)N(CCP(=O)(O)O)C12CCOC2` (centres unmarked) [Compound 42], the IC50 reads like this: under setting [1], 447 nM; under setting [2], 54.8 nM.

As for `CC(C)OC(=O)OCOP(=O)(CCN1C(=O)c2c(O)c(=O)c(C(=O)NCc3ccc(F)cc3F)cn2N(C)C12CCOC2)OCOC(=O)OC(C)C` (centres unmarked) [Compound 43], the IC50 under setting [1] amounted to 43.4 nM and the IC50 under setting [2] is 1.2 nM.

Regarding `CC(C)OC(=O)[C@H](C)NP(=O)(CCN1C(=O)c2c(O)c(=O)c(C(=O)NCc3ccc(F)cc3F)cn2N(C)C12CCOC2)Oc1ccccc1` (some centres unmarked) [Compound 44], under setting [3], the IC50 came out at 13.4 nM.
